# Publication PMC9457997, “2-(Nitroaryl)-5-Substituted-1,3,4-Thiadiazole Derivatives with Antiprotozoal Activities: In Vitro and In Vivo Study” (Molecules, 2022)
# Where two headings read alike, the source gives them in different places.
# Experiments:
# Cytotoxicity in L6 cells = conditions: rat
# T. b. rhodesiense = conditions: cited from earlier work
# in vitro = conditions: rat
# [1] = system: T. b. rhodesiense, strain STIB 900 trypomastigotes; experiment: In vitro activity against T. b. rhodesiense STIB 900 bloodstream forms; format: cell-based; conditions: Trypanosoma brucei, read-out: T. b. rhodesiense IC50
# [2] = system: T. cruzi, strain Tulahuen C4 amastigotes; experiment: In vitro activity against T. cruzi amastigotes; format: cell-based; conditions: Trypanosoma cruzi, read-out: T. cruzi IC50
# Experimental: Although all of the compounds had been tested against Leishmania major promastigotes in our previous works, to deeper evaluate the antitrypanosomatid potential of the selected nitroimidazole derivatives, their activity was measured against L. donovani axenic amastigotes and T. cruzi amastigotes (Table 2). Miltefosine and benznidazole were used as reference drugs. Compounds 18a and 18g were also tested against L. donovani intracellular amastigotes in peritoneal murine macrophages in a further assay. […]. In vitro activity against the protozoan parasites T. b. rhodesiense, T.cruzi, L. donovani and cytotoxicity assessment against L6 cells were determined as reported previously. The following strains, parasite forms, and positive controls were used: T. b. rhodesiense STIB 900 bloodstream forms, melarsoprol (received from WHO, Arsobal Sanofi); T.cruzi Tulahuen C2C4 intracellular amastigotes, benznidazole (received from DNDi synthesized by Epichem Pty Ltd., Murdoch, Australia); L. donovani MHOM-ET-67/L82 axenically grown amastigotes and intracellular amastigotes, miltefosine (Sigma M5571). L6 rat skeletal myoblasts (ATCC CRL-1458), podophyllotoxin (Sigma P4405).
# [3] = system: T. b. rhodesiense STIB 900; experiment: T. b. rhodesiense STIB 900 acute mouse model of HAT; format: in vivo; conditions: for Cured/Infected / Mean Survival Days (MSD): 4 × 50 mg/kg i.p., acute mouse model STIB 900
# Experimental: […]. All of these compounds were administered at an intraperitoneal dose of 50 mg/kg/day for 4 days. […] A total of three of the four mice treated with morpholine derivative 18b were cured and the parasite was not found in the blood of one mouse until day 60 of infection. […] All of the mice treated with compound 18f survived 60 days, but one mouse was parasite positive. Compound 18d presented the least cure rate; a total of three mice were parasite positive and died between days 15 and 20, and one mouse survived.
# The in vivo efficacy was determined in the T. b. rhodesiense STIB 900 acute mouse model that mimics the first stage of the disease as described earlier. In vivo efficacy studies in mice were conducted at the Swiss Tropical and Public Health Institute (Basel) (License number 2813), according to the rules and regulations for the protection of animal rights (“Tierschutzverordnung”) of the Swiss “Bundesamt für Veterinärwesen”. They were approved by the veterinary office of Canton Basel-Stadt, Switzerland.
# [4] = system: L. donovani, strain MHOM-ET-67/L82 axenically grown amastigotes; experiment: In vitro activity against L. donovani axenic amastigotes; format: cell-based; conditions: for IC50: Leishmania donovani, strain MHOM-ET-67/L82 axenically grown amastigotes, means of two independent assays; for TDR criteria class against L. donovani amastigotes: TDR criteria for antiparasitic activity
# Experimental: (§1) Miltefosine and benznidazole were used as reference drugs. […] In vitro activity against the protozoan parasites T. b. rhodesiense, T.cruzi, L. donovani and cytotoxicity assessment against L6 cells were determined as reported previously. The following strains, parasite forms, and positive controls were used: T. b. rhodesiense STIB 900 bloodstream forms, melarsoprol (received from WHO, Arsobal Sanofi); T.cruzi Tulahuen C2C4 intracellular amastigotes, benznidazole (received from DNDi synthesized by Epichem Pty Ltd., Murdoch, Australia); L. donovani MHOM-ET-67/L82 axenically grown amastigotes and intracellular amastigotes, miltefosine (Sigma M5571).
# T. brucei = conditions: cited from earlier work
# T. b. brucei = conditions: cited from earlier work
# T. b. gambiense = conditions: gambiense HAT patients; cited from earlier work
# HAT mouse model = conditions: cited from earlier work
# [5] = design: method as in PMID 29191556; conditions: cited from earlier work
# [6] = system: L. donovani intracellular amastigotes in peritoneal murine macrophages; experiment: In vitro activity against L. donovani intracellular amastigotes; format: cell-based; conditions: Leishmania donovani, Macrophage, means of two independent assays
# Experimental: as §1
# [7] = read-out: IC50 against T. b. rhodesiense
# [8] = strain STIB 900 trypomastigotes (BSF form), means of two independent assays
# [9] = read-out: IC50 against T. b. brucei
compound,measurement,setting,value
COc1cc([C@@H]2c3cc4c(cc3[C@H](O)[C@H]3COC(=O)[C@H]23)OCO4)cc(OC)c1OC [Podophyllotoxin],IC50,Cytotoxicity in L6 cells,6 nM
O=[N+]([O-])c1nccn1CCCNc1ccnc2c(Cl)cccc12 [Compound 2],IC50,T. b. rhodesiense; [7],1290 nM
O=[N+]([O-])c1ccc(-c2nnc(N3CCNCC3)s2)o1 [Compound 16c],IC50,in vitro,1060 nM
same,IC50,[1]; [8],60 nM
O=C(c1ccccc1)N1CCN(c2nnc(-c3ccc([N+](=O)[O-])s3)s2)CC1 [Compound 17g],IC50,in vitro,51000 nM
same,IC50,[1]; [8],438 nM
CN1CCN(c2nnc(-c3ncc([N+](=O)[O-])n3C)s2)CC1 [Compound 18d],IC50,[2],462 nM
same,IC50,in vitro,> 290000 nM
same,IC50,[1]; [8],142 nM
same,Cured/Infected,[3],1/4
same,Mean Survival Days (MSD),[3],>27.75 days
Cn1c([N+](=O)[O-])cnc1-c1nnc(N2CCNCC2)s1 [Compound 18c],IC50,[2],125 nM
same,IC50,in vitro,140000 nM
same,IC50,[1]; [8],12 nM
same,death during treatment,"[3]; 50 mg/kg/day i.p., mouse excluded from the experimental group",One mouse died on day six
same,Cured/Infected,[3],3/3
same,Mean Survival Days (MSD),[3],>60 days
same,IC50,[4],3230 nM
CN1CCN(c2nnc(-c3ccc([N+](=O)[O-])o3)s2)CC1 [Compound 16d],IC50,in vitro,1360 nM
same,IC50,[1]; [8],241 nM
O=[N+]([O-])c1ccc(-c2nnc(N3CCN(c4ccccc4)CC3)s2)s1 [Compound 17e],IC50,in vitro,56500 nM
same,IC50,[1]; [8],11800 nM
CC(C)N(CCO/N=C/c1ccc([N+](=O)[O-])s1)C(C)C [Compound 11],"MIC, trypanocidal activity",T. brucei,1 µg/mL
O=[N+]([O-])c1ccc(-c2nnc(N3CCCCC3)s2)s1 [Compound 17a],IC50,in vitro,226000 nM
same,IC50,[1]; [8],647 nM
Cn1c([N+](=O)[O-])cnc1-c1nnc(N2CCN(c3ccccc3)CC2)s1 [Compound 18e],IC50,in vitro,163000 nM
same,IC50,[1]; [8],285 nM
O=[N+]([O-])c1ccc(-c2nnc(N3CCOCC3)s2)s1 [Compound 17b],IC50,in vitro,> 302000 nM
same,IC50,[1]; [8],1180 nM
O=[N+]([O-])c1ccc(-c2nnc(N3CCN(c4ccccc4)CC3)s2)o1 [Compound 16e],IC50,in vitro,6430 nM
same,IC50,[1]; [8],540 nM
"Nc1nc(N)nc(Nc2ccc([As]3SCC(CO)S3)cc2)n1 (stereo not drawn) [Melarsoprol, reference compound]",IC50,Cytotoxicity in L6 cells,9600 nM
same,IC50,[1],4 nM
C=CCOc1ccc(NC(=O)c2ccc([N+](=O)[O-])o2)cc1C(F)(F)F [Compound 9],IC50,T. b. rhodesiense; [7],2.9 nM
same,IC50,T. b. brucei; [9],2.4 nM
CCCCCCCOC(=O)N/N=C/c1ccc([N+](=O)[O-])o1 [Compound 8],IC50,T. brucei; read-out: IC50 against the BSF form of T. brucei,120 nM
O=C(N/N=C\c1coc([N+](=O)[O-])c1)C12CC3CC(C1)CC(C(=O)N/N=C/c1ccc([N+](=O)[O-])o1)(C3)C2 [Compound 10],IC50,T. brucei; read-out: IC50 against T. brucei,75 nM
CN(C)c1nc(N/N=C/c2ccc([N+](=O)[O-])o2)nc(N(C)C)n1 [Compound 7],IC50,T. b. rhodesiense; read-out: IC50 against trypomastigotes of T. brucei rhodesiense,3 nM
O=c1c2nc([N+](=O)[O-])cn2ccn1Cc1ccc(-c2ccc(OC(F)(F)F)cc2)cn1 [Compound 6],IC50,T. b. brucei; [9],2 nM
O=[N+]([O-])c1ccc(-c2nnc(N3CCCCC3)s2)o1 [Compound 16a],IC50,in vitro,2490 nM
same,IC50,[1]; [8],242 nM
CC(=O)N1CCN(c2nnc(-c3ccc([N+](=O)[O-])s3)s2)CC1 [Compound 17f],IC50,in vitro,225000 nM
same,IC50,[1]; [8],1890 nM
CC(=O)N1CCN(c2nnc(-c3ncc([N+](=O)[O-])n3C)s2)CC1 [Compound 18f],IC50,[2],468 nM
same,IC50,in vitro,> 267000 nM
same,IC50,[1]; [8],89 nM
same,Cured/Infected,[3],3/4
same,Mean Survival Days (MSD),[3],>60 days
CSc1ccc(OCc2ncc([N+](=O)[O-])n2C)cc1 [Fexinidazole],cure rate,T. b. gambiense,91%
O=[N+]([O-])c1cn2c(n1)[S+]([O-])CC(OCc1ccc(OC(F)(F)F)cc1)C2 (stereo not drawn) [Compound 3],cure rate in an acute infection mouse model of HAT,HAT mouse model,100%
same,metabolic stability,[5],good metabolic stability
Cn1c([N+](=O)[O-])cnc1-c1nnc(N2CCOCC2)s1 [Compound 18b],IC50,[2],294 nM
same,IC50,in vitro,265000 nM
same,IC50,[1]; [8],145 nM
same,Cured/Infected,[3],3/4
same,Mean Survival Days (MSD),[3],>60 days
same,IC50,[4],445 nM
same,TDR criteria class against L. donovani amastigotes,[4],active
O=C1NC(c2ccccc2)=CN2C=C([N+](=O)[O-])NC12 (stereo not drawn) [Compound 5a],IC50,T. b. brucei; read-out: IC50 against T. brucei brucei,220 nM
O=[N+]([O-])c1ccc(-c2nnc(N3CCNCC3)s2)s1 [Compound 17c],IC50,in vitro,6380 nM
same,IC50,[1]; [8],346 nM
Cn1c([N+](=O)[O-])cnc1-c1nnc(N2CCN(C(=O)c3ccccc3)CC2)s1 [Compound 18g],IC50,[2],300 nM
same,cure rate,"[3]; 50 mg/kg/day i.p. for 4 days, until 60 days after infection",100%
same,Cured/Infected,[3],4/4
same,Mean Survival Days (MSD),[3],>60 days
same,TDR criteria class against L. donovani amastigotes,[4],active
"CCCCCCCCCCCCCCCCOP(=O)([O-])OCC[N+](C)(C)C [Miltefosine, reference compound]",IC50,[6],1840 nM
same,IC50,[4],359 nM
Cn1c([N+](=O)[O-])cnc1-c1nnc(N2CCCCC2)s1 [Compound 18a],IC50,[2],897 nM
same,IC50,[6],4760 nM
same,IC50,in vitro,> 306000 nM
same,IC50,[1]; [8],510 nM
same,IC50,[4],476 nM
same,TDR criteria class against L. donovani amastigotes,[4],active
CN1CCN(c2nnc(-c3ccc([N+](=O)[O-])s3)s2)CC1 [Compound 17d],IC50,in vitro,40800 nM
same,IC50,[1]; [8],1150 nM
CC(=O)N1CCN(c2nnc(-c3ccc([N+](=O)[O-])o3)s2)CC1 [Compound 16f],IC50,in vitro,2490 nM
same,IC50,[1]; [8],81 nM
O=[N+]([O-])c1ccc(-c2nnc(N3CCOCC3)s2)o1 [Compound 16b],IC50,in vitro,5670 nM
same,IC50,[1]; [8],914 nM
"O=C(Cn1ccnc1[N+](=O)[O-])NCc1ccccc1 [Benznidazole, reference compound]",IC50,[2],1430 nM
